Data from ChEMBL document CHEMBL4138123, “Design, synthesis and biological evaluation of novel pyrazolochalcones as potential modulators of PI3K/Akt/mTOR pathway and inducers of apoptosis in breast cancer cells” (Eur J Med Chem, 2017).

Assays:
Assay type in all cases: functional
UO-31 [1] = assay: Cytotoxicity against human UO31 cells assessed as cell growth at 10 uM after 48 hrs by sulforhodamine B assay relative to control; settings: UO-31, 48 h, read-out: Activity
MCF7 = assay: Cytotoxicity against human MCF7 cells assessed as cell growth at 0.01 uM after 48 hrs by sulforhodamine B assay relative to control; settings: MCF7, 48 h, read-out: Activity
MDA-MB-435 = assay: Cytotoxicity against human MDA-MB-435 cells assessed as cell growth at 1 uM after 48 hrs by sulforhodamine B assay relative to control; settings: MDA-MB-435, 48 h, read-out: Activity
SR [2] = assay: Cytotoxicity against human SR cells assessed as cell growth at 1 uM after 48 hrs by sulforhodamine B assay relative to control; settings: read-out: Activity
SK-MEL-5 = assay: Cytotoxicity against human SK-MEL-5 cells assessed as cell growth at 0.1 uM after 48 hrs by sulforhodamine B assay relative to control; settings: SK-MEL-5, 48 h, read-out: Activity
OVCAR-3 = assay: Cytotoxicity against human OVCAR3 cells assessed as cell growth at 1 uM after 48 hrs by sulforhodamine B assay relative to control; settings: OVCAR-3, 48 h, read-out: Activity
SK-MEL-28 [3] = assay: Cytotoxicity against human SK-MEL-28 cells assessed as cell growth at 100 uM after 48 hrs by sulforhodamine B assay relative to control; settings: SK-MEL-28, 48 h, read-out: Activity
UACC-62 [4] = assay: Cytotoxicity against human UACC62 cells assessed as cell growth at 100 uM after 48 hrs by sulforhodamine B assay relative to control; settings: UACC-62, 48 h, read-out: Activity
SF-539 [5] = assay: Cytotoxicity against human SF539 cells assessed as cell growth at 10 uM after 48 hrs by sulforhodamine B assay relative to control; settings: SF-539, 48 h, read-out: Activity
IGROV-1 = assay: Cytotoxicity against human IGROV1 cells assessed as cell growth at 100 uM after 48 hrs by sulforhodamine B assay relative to control; settings: IGROV-1, 48 h, read-out: Activity
HOP-62 = assay: Cytotoxicity against human HOP62 cells assessed as cell growth at 0.1 uM after 48 hrs by sulforhodamine B assay relative to control; settings: HOP-62, 48 h, read-out: Activity
OVCAR-5 = assay: Cytotoxicity against human OVCAR5 cells assessed as cell growth at 1 uM after 48 hrs by sulforhodamine B assay relative to control; settings: OVCAR-5, 48 h, read-out: Activity
MDA-MB-468 = assay: Cytotoxicity against human MDA-MB-468 cells assessed as cell growth at 10 uM after 48 hrs by sulforhodamine B assay relative to control; settings: MDA-MB-468, 48 h, read-out: Activity
UO-31 [6] = assay: Cytotoxicity against human UO31 cells assessed as cell growth at 100 uM after 48 hrs by sulforhodamine B assay relative to control; settings: UO-31, 48 h, read-out: Activity
Hs-578T [7] = assay: Cytotoxicity against human Hs 578T cells assessed as cell growth at 0.01 uM after 48 hrs by sulforhodamine B assay relative to control; settings: read-out: Activity
HCT-116 [8] = assay: Cytotoxicity against human HCT116 cells assessed as cell growth at 0.01 uM after 48 hrs by sulforhodamine B assay relative to control; settings: HCT-116, 48 h, read-out: Activity
M14 [9] = assay: Cytotoxicity against human M14 cells assessed as growth inhibition after 48 hrs by sulforhodamine B assay; settings: M14, 48 h
T47D = assay: Cytotoxicity against human T47D cells assessed as cell growth at 0.01 uM after 48 hrs by sulforhodamine B assay relative to control; settings: read-out: Activity
UO-31 [10] = assay: Cytotoxicity against human UO31 cells assessed as cell growth at 0.1 uM after 48 hrs by sulforhodamine B assay relative to control; settings: UO-31, 48 h, read-out: Activity
Hs-578T [11] = assay: Cytotoxicity against human Hs 578T cells assessed as cell growth at 0.1 uM after 48 hrs by sulforhodamine B assay relative to control; settings: read-out: Activity
UACC-62 [12] = assay: Cytotoxicity against human UACC62 cells assessed as cell growth at 0.1 uM after 48 hrs by sulforhodamine B assay relative to control; settings: UACC-62, 48 h, read-out: Activity
NCI-H226 = assay: Cytotoxicity against human NCI-H226 cells assessed as cell growth at 0.1 uM after 48 hrs by sulforhodamine B assay relative to control; settings: NCI-H226, 48 h, read-out: Activity
HCT-116 [13] = assay: Cytotoxicity against human HCT116 cells assessed as cell growth at 100 uM after 48 hrs by sulforhodamine B assay relative to control; settings: HCT-116, 48 h, read-out: Activity
SNB-19 = assay: Cytotoxicity against human SNB19 cells assessed as cell growth at 100 uM after 48 hrs by sulforhodamine B assay relative to control; settings: SNB-19, 48 h, read-out: Activity
SR [14] = assay: Cytotoxicity against human SR cells assessed as cell growth at 100 uM after 48 hrs by sulforhodamine B assay relative to control; settings: read-out: Activity
A498 = assay: Cytotoxicity against human A498 cells assessed as cell growth at 10 uM after 48 hrs by sulforhodamine B assay relative to control; settings: A498, 48 h, read-out: Activity
DU-145 = assay: Cytotoxicity against human DU145 cells assessed as growth inhibition after 48 hrs by sulforhodamine B assay; settings: DU-145, 48 h; for CC50: read-out: LC50 (the source's name)
COLO 205 = assay: Cytotoxicity against human COLO205 cells assessed as cell growth at 10 uM after 48 hrs by sulforhodamine B assay relative to control; settings: COLO 205, 48 h, read-out: Activity
SF-539 [15] = assay: Cytotoxicity against human SF539 cells assessed as growth inhibition after 48 hrs by sulforhodamine B assay; settings: SF-539, 48 h
UACC-62 [16] = assay: Cytotoxicity against human UACC62 cells assessed as growth inhibition after 48 hrs by sulforhodamine B assay; settings: UACC-62, 48 h
NCI-H522 = assay: Cytotoxicity against human NCI-H522 cells assessed as cell growth at 100 uM after 48 hrs by sulforhodamine B assay relative to control; settings: NCI-H522, 48 h, read-out: Activity
HCC 2998 = assay: Cytotoxicity against human HCC2998 cells assessed as cell growth at 1 uM after 48 hrs by sulforhodamine B assay relative to control; settings: HCC 2998, 48 h, read-out: Activity
M14 [17] = assay: Cytotoxicity against human M14 cells assessed as cell growth at 0.1 uM after 48 hrs by sulforhodamine B assay relative to control; settings: M14, 48 h, read-out: Activity
SK-MEL-28 [18] = assay: Cytotoxicity against human SK-MEL-28 cells assessed as cell growth at 10 uM after 48 hrs by sulforhodamine B assay relative to control; settings: SK-MEL-28, 48 h, read-out: Activity
MDA-MB-231 = assay: Cytotoxicity against human MDA-MB-231 cells assessed as growth inhibition after 48 hrs by sulforhodamine B assay; settings: MDA-MB-231, 48 h
LOX IMVI = assay: Cytotoxicity against human LOXIMVI cells assessed as growth inhibition after 48 hrs by sulforhodamine B assay

Compound COc1ccc(-c2cc(/C=C/C(=O)c3ccc(N)cc3)[nH]n2)cc1 has a growth at 10 µM (UO-31 [1]) of -88%, a growth at 0.01 µM (MCF7) of 84% and a growth at 1 µM (MDA-MB-435) of 85%. For the same compound, the growth at 1 µM (SR [2]) was 45%, the growth at 0.1 µM (SK-MEL-5) was 90% and the growth at 1 µM (OVCAR-3) was 63%. The growth at 100 µM (SK-MEL-28 [3]) was -81%, the growth at 100 µM (UACC-62 [4]) was -93% and the growth at 10 µM (SF-539 [5]) was -61%. For the same compound, the growth at 100 µM (IGROV-1) was -67%, the growth at 0.1 µM (HOP-62) was 100% and the growth at 1 µM (OVCAR-5) was 92%. It also gave a growth at 10 µM (MDA-MB-468) of -62%, a growth at 100 µM (UO-31 [6]) of -87% and a growth at 0.01 µM (Hs-578T [7]) of 98%. For the same compound, the growth at 0.01 µM (HCT-116 [8]) was 97%, the GI50 (M14 [9]) was 2.67 µM and the LC50 (concentration killing 50% of cells) (M14 [9]) was 36.1 µM. It also gave a TGI (M14 [9]) of 6.54 µM, a growth at 0.01 µM (T47D) of 98% and a growth at 0.1 µM (UO-31 [10]) of 82%. It also gave a growth at 0.1 µM (Hs-578T [11]) of 97%, a growth at 0.1 µM (UACC-62 [12]) of 97% and a growth at 0.1 µM (NCI-H226) of 84%. The growth at 100 µM (HCT-116 [13]) was -15%, the growth at 100 µM (SNB-19) was -80% and the growth at 100 µM (SR [14]) was -61%. It also gave a growth at 10 µM (A498) of -39%, a GI50 (DU-145) of 1.32 µM and a TGI (DU-145) of 3.46 µM. The CC50 (DU-145) was 9.11 µM, the growth at 10 µM (COLO 205) was -86% and the GI50 (SF-539 [15]) was 1.47 µM. The LC50 (concentration killing 50% of cells) (SF-539 [15]) was 8.25 µM, the TGI (SF-539 [15]) was 3.48 µM and the GI50 (UACC-62 [16]) was 1.48 µM. The LC50 (UACC-62 [16]) was 5.84 µM, the TGI (UACC-62 [16]) was 2.94 µM and the growth at 100 µM (NCI-H522) was -75%. The growth at 1 µM (HCC 2998) was 100%, the growth at 0.1 µM (M14 [17]) was 103% and the growth at 10 µM (SK-MEL-28 [18]) was -60%. The GI50 (MDA-MB-231) was 2.14 µM, the LC50 (MDA-MB-231) was 55.5 µM and the TGI (MDA-MB-231) was 8.29 µM.

Compound COc1ccc(-c2cc(/C=C/C(=O)c3ccc(OC)c(OC)c3)[nH]n2)cc1 has a growth at 10 µM (UO-31 [1]) of -96%, a growth at 0.01 µM (MCF7) of 91% and a growth at 1 µM (MDA-MB-435) of 91%. It also gave a growth at 1 µM (SR [2]) of 39%, a growth at 0.1 µM (SK-MEL-5) of 93% and a growth at 1 µM (OVCAR-3) of 62%. For the same compound, the growth at 100 µM (SK-MEL-28 [3]) was -100%, the growth at 100 µM (UACC-62 [4]) was -100% and the growth at 10 µM (SF-539 [5]) was -93%. The growth at 100 µM (IGROV-1) was -84%, the growth at 0.1 µM (HOP-62) was 97% and the growth at 1 µM (OVCAR-5) was 77%. It also gave a growth at 10 µM (MDA-MB-468) of -69%, a growth at 100 µM (UO-31 [6]) of -100% and a growth at 0.01 µM (Hs-578T [7]) of 96%. For the same compound, the growth at 0.01 µM (HCT-116 [8]) was 97%, the GI50 (M14 [9]) was 2.17 µM and the LC50 (concentration killing 50% of cells) (M14 [9]) was 13.8 µM. It also gave a TGI (M14 [9]) of 4.97 µM, a growth at 0.01 µM (T47D) of 95% and a growth at 0.1 µM (UO-31 [10]) of 87%. For the same compound, the growth at 0.1 µM (Hs-578T [11]) was 92%, the growth at 0.1 µM (UACC-62 [12]) was 93% and the growth at 0.1 µM (NCI-H226) was 90%. For the same compound, the growth at 100 µM (HCT-116 [13]) was -100%, the growth at 100 µM (SNB-19) was -96% and the growth at 100 µM (SR [14]) was -41%. For the same compound, the growth at 10 µM (A498) was -57%, the GI50 (DU-145) was 1.4 µM and the TGI (DU-145) was 2.81 µM. It also gave a CC50 (DU-145) of 5.64 µM, a growth at 10 µM (COLO 205) of -89% and a GI50 (SF-539 [15]) of 1.27 µM. It also gave an LC50 (concentration killing 50% of cells) (SF-539 [15]) of 5.38 µM, a TGI (SF-539 [15]) of 2.61 µM and a GI50 (UACC-62 [16]) of 1.65 µM. For the same compound, the LC50 (UACC-62 [16]) was 6.79 µM, the TGI (UACC-62 [16]) was 3.35 µM and the growth at 100 µM (NCI-H522) was -81%. For the same compound, the growth at 1 µM (HCC 2998) was 102%, the growth at 0.1 µM (M14 [17]) was 105% and the growth at 10 µM (SK-MEL-28 [18]) was -95%. The GI50 (MDA-MB-231) was 2 µM, the LC50 (MDA-MB-231) was 30 µM and the TGI (MDA-MB-231) was 6.63 µM.

In the case of COc1ccc(-c2cc(/C=C/C(=O)c3ccc4c(c3)OCO4)[nH]n2)cc1OC, the GI50 (LOX IMVI) is reported as 1.29 µM, the GI50 (M14 [9]) is reported as 1.91 µM and the GI50 (DU-145) is reported as 1.64 µM. It also gave a GI50 (SF-539 [15]) of 0.52 µM, a GI50 (UACC-62 [16]) of 1.86 µM and a GI50 (MDA-MB-231) of 1.88 µM.
